One block for each substance: values may come before it.
Experiments:
[1] = system: Pancreatin from porcine pancreas; experiment: In vitro incubation of MEDI7219 with pancreatin in PBS, LC-MS/MS metabolite identification and relative quantification; type: in vitro ADME; settings: for Time at which fractional abundance peaked: pancreatin 3 mg/ml in PBS, 37 °C, sampling 0.5-6 h
Procedure: MEDI7219 solution (10 µg/ml) was incubated with pancreatin (3 mg/ml) in pre-warmed PBS buffer at 37 °C for 0.5 h, 1 h, 2 h, 4 h and 6 h. A negative control sample was prepared as pancreatin in PBS buffer without MEDI7219 spiked in. A time zero sample was prepared as MEDI7219 in PBS without pancreatin. At each time point, 100 µl was sampled and quenched with 200 µl of acetonitrile. The quenched solution was centrifuged at 6000 g for 10 min. Supernatant was diluted 5-fold in mobile phase A (0.1 % formic acid in water) and 40 µl was injected to LC-MS/MS. Same LC-MS system was used here as structural characterization experiment. A longer LC gradient was applied where 20 % B was increased to 60 % B within 8 min.
For MS method, DDA (data dependent acquisition) experiment was used where ions in range of 800-1250 Da were selected for MS/MS. Same key settings for CID and EAD established in the structural characterization experiment described above were applied in MS method here.
Data were analyzed using Molecule Profiler beta version 1.3.2 (MP, SCIEX) beta version. Raw data from incubation at each time point was analyzed against the pancreatin blank sample in the MP software. […] Amino acid sequence for MEDI7219 was entered as a processing parameter. Non-natural amino acids including α-methyl-L-alanine, α-methyl-L-phenylalanine, α-methyl-L-serine, α-methyl-L-lysine, as well as side-chain lipid on lysine (C35H63N5O11) were added as custom elements by providing molecular formula in the software. Peptide method was used to match all peptide fragment peaks with full lipid side chain. Both MS1 and MS2 were used for peak finding based on mass tolerance of 15 ppm. For MS parameters, charge states 2-5 were included in the search. For MS/MS parameters, theoretical b, y, c’, z· as well as y|a and y|b internal fragment ions were searched with mass tolerance of 15 ppm. Default Biologics biotransformation set was used in the processing method. For quantification, all isotope peaks as part of a cluster and multiple charge states of the same peptide were summed for peak area. Results from individual timepoints were consolidated in Correlation analysis with 0.1 min retention time (RT) tolerance and 15 ppm m/z tolerance to yield the final list of metabolites and peak areas from all samples.
Pancreatin was chosen for the in vitro evaluation because the site of maximal gastrointestinal absorption for MEDI7219 oral peptide was small intestine and proximal colon ([Pechenov et al., 2021]). […]
For relative quantification, after correlation analysis in MP software and exporting XIC peak areas, we calculated fractional abundance of each metabolite over the incubation period (Figure 4). […]

[2] = system: pancreatin; settings: result in words; ref Pechenov et al., 2021; cited from earlier work
Source text: Systematic multi-disciplinary approach to engineering led to rational selection of the clinical lead, MEDI7219, a GLP-1 peptide with bis-lipidation and 12 amino acid substitutions and 5 α- methyl modifications ([Pechenov et al., 2021]). […] This measurement was done using HPLC with MEDI7219 detection by UV absorption at 210 nm. In this study, we identified key metabolites from MEDI7219 ... || For relative quantification, after correlation analysis in MP software and exporting XIC peak areas, we calculated fractional abundance of each metabolite over the incubation period (Figure 4). This was taken as a percent of XIC peak area of each metabolite over total peak area of all metabolites at a given timepoint (Table S2). Parent peptide decreased quickly in this experiment compared to the 60 % remained intact after 2 h in previous publication ([Pechenov et al., 2021]). The enzyme to substrate ratio was higher in this study compared to Pechenov et al. as the assay condition was optimized ...

[3] = result in words; ref Pechenov et al., 2021; cited from earlier work
Source text: Semaglutide was the first approved oral GLP-1 receptor agonist ([Mahapatra et al., 2022]) and it incorporated peptide engineering approaches such as unnatural amino acid substitution to protect proteolytic sites, and lipidation to promote plasma protein binding to reduce renal clearance.

Number of distinct cleavage sites ([1]; the 13 metabolites mapped on the MEDI7219 structure): 8
Substance: HαAEGSαFTSDVαSSsidechainKLEGEAAαKEαFIAsidechainK VVEGG [MEDI7219, orally-bioavailable GLP-1 peptide with bis-lipidation, 12 amino acid substitutions and 5 α-methyl modifications; clinical candidate]
Parent peptide in metabolite chromatograms over pancreatin incubation ([1]; summed XIC chromatograms, 0-6 h, CID data, result in words): still present at 0.5 h although no longer the prominent species, and it decreased significantly after 2 h
Proteolytic stability compared with wild type or semaglutide [2]: proteolytically more stable than the wild type or semaglutide

Substance: semaglutide
Degradation in GI tract [3]: rapidly degraded in GI tract

Time at which fractional abundance peaked [1]: 0.5 h
Substance: HαAEGSαFTSDVαSSsidechainK [Metabolite M13, metabolite of MEDI7219 identified after incubation with pancreatin]

Time at which fractional abundance peaked [1]: 0.5 h
Substance: HαAEGSαFTSDVαSSsidechainKLEGEAAαKEαFIAsidechainK [Metabolite M2, metabolite of MEDI7219 identified after incubation with pancreatin]
